Test results: publication PMC10583824, “The rational design of ARUK2007145, a dual inhibitor of the α and γ isoforms of the lipid kinase phosphatidylinositol 5-phosphate 4-kinase (PI5P4K)” (RSC Medicinal Chemistry, 2023)
Values after ≈ are worked out from the molar mass of the structure shown.

Tested on: not listed separately
Experiment: Mouse liver microsome stability
Format: in vitro ADME
Details: mouse liver microsomes half-life; read-out: MLM t½
Protocol: (§1) ADMET experimental methods […]
Mouse Microsomal stability: analysis was performed by Cyprotex Discovery. Briefly, test compounds in DMSO
protein/mL) in the presence of NADPH (1 mM) at 37 °C. Aliquots were taken at time intervals (0, 5, 15, 30 and
compound remaining, allowing the determination of the half-life for the compound.

half-life at 1 µM [h] | Compound
1.22 | Cn1cc(-c2cc3c(Nc4ccc(S(C)(=O)=O)cc4)ncnc3s2)cn1 [Compound 8]
0.0157 | CSc1ccc(Nc2ncnc3sc(-c4ccncc4C)cc23)cc1 [Compound 26]
0.00733 | CSc1ccc(Nc2ncnc3cc(-c4cccnc4Cl)sc23)cc1 [Compound 39]
1.18 | CS(=O)(=O)c1ccc(Nc2ncnc3cc(-c4cccnc4Cl)sc23)cc1 [Compound 37]
6.38 | CS(=O)(=O)c1ccc(Nc2ncnc3sc(-c4cccnc4Cl)cc23)cc1 [Compound 15]

Biological target: T1, PI5P4Kγ-WT (Homo sapiens, UniProt Q8TBX8)
T1 sequence (Q8TBX8 1-421): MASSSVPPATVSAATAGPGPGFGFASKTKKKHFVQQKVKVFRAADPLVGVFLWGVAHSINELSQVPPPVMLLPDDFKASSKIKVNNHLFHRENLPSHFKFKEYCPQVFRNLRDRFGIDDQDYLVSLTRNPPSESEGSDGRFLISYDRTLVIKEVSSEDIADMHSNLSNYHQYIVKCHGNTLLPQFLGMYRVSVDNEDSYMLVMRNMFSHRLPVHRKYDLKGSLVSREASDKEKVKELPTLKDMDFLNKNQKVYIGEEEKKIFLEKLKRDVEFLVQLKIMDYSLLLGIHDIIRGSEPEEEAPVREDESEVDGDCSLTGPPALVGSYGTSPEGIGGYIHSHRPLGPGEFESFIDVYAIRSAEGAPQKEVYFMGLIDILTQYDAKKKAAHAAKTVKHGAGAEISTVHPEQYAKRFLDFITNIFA
Experiment: InCELL Pulse cellular target engagement (thermal stabilisation) assay
Details: Hek293 cells stably expressing ePL-tagged PI5P4Kγ

InCELL Pulse pIC50 PI5P4Kγ-WT | Compound
6.7 | Cn1cc(-c2cc3c(Nc4ccc(S(C)(=O)=O)cc4)ncnc3s2)cn1 [Compound 8]
7.3 | CSc1ccc(Nc2ncnc3cc(-c4cccnc4Cl)sc23)cc1 [Compound 39]
7.4 | CS(=O)(=O)c1ccc(Nc2ncnc3cc(-c4cccnc4Cl)sc23)cc1 [Compound 37]
7.1 | CS(=O)(=O)c1ccc(Nc2ncnc3sc(-c4cccnc4Cl)cc23)cc1 [Compound 15]

Tested on: not listed separately
Experiment: Turbidimetric aqueous solubility
Format: physicochemical
Details: pH 7.4, turbidimetric
Protocol: as §1
Turbidimetric aqueous solubility: analysis was performed by Cyprotex Discovery. Compound in DMSO at 10 mM was serially diluted to solutions of 0.1, 0.3, 1 and 3 mM in DMSO, then further diluted 1 in 100 in buffer (0.01 M PBS, pH 7.4, 1% DMSO final). 7 replicate wells of each dilution were equilibrated for 2 hours at 37 °C before absorbance is measured at 620 nm. The solubility is estimated from the concentration of test compound that produces an increase in absorbance above vehicle control (1% DMSO in buffer). […]

solubility at 2 h [µM] | Compound
1 (≈ 0.381 µg/mL) | CS(=O)(=O)c1ccc(Nc2ncnc3sc(-c4ccccc4)cc23)cc1 [Compound 5]
30 (≈ 11.6 µg/mL) | Cn1cc(-c2cc3c(Nc4ccc(S(C)(=O)=O)cc4)ncnc3s2)cn1 [Compound 8]
3 (≈ 1.09 µg/mL) | CSc1ccc(Nc2ncnc3sc(-c4ccncc4C)cc23)cc1 [Compound 26]
10 (≈ 3.85 µg/mL) | CSc1ccc(Nc2ncnc3cc(-c4cccnc4Cl)sc23)cc1 [Compound 39]
10 (≈ 4.17 µg/mL) | CS(=O)(=O)c1ccc(Nc2ncnc3cc(-c4cccnc4Cl)sc23)cc1 [Compound 37]
3 (≈ 1.25 µg/mL) | CS(=O)(=O)c1ccc(Nc2ncnc3sc(-c4cccnc4Cl)cc23)cc1 [Compound 15]

Biological target: T2, PI5P4Kγ+ (Homo sapiens, UniProt Q8TBX8, D138G/D197E/E133P/E135D/E153T/E196G/G139A/N195G/S132L/S134N)
T2 sequence (Q8TBX8 with tags, fused parts or gaps INS131LPN/S132D/E133S/S134Q/E135A/G136R/D138G/G139A/E153T/N195G/E196G/D197E): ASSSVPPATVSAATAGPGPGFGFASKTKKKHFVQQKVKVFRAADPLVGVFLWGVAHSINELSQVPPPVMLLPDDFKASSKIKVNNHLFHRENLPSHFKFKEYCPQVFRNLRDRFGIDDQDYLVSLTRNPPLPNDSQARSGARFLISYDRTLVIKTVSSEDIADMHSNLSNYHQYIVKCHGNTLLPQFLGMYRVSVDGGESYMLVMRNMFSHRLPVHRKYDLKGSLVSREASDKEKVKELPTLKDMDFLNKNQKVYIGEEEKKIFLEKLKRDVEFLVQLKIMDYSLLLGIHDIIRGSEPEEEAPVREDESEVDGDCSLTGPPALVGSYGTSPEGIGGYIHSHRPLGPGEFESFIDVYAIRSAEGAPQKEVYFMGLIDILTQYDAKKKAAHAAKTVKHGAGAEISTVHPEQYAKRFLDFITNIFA
Experiment: biochemical
Details: ADP-Glo pIC50 PI5P4Kγ+, Table S1, two decimals; asterisk not explained

IC50 [nM] | Compound
36.3 | Cn1cc(-c2cc3c(Nc4ccc(S(C)(=O)=O)cc4)ncnc3s2)cn1 [Compound 8]
19.5 | CSc1ccc(Nc2ncnc3sc(-c4ccncc4C)cc23)cc1 [Compound 26]
8.71 | CSc1ccc(Nc2ncnc3cc(-c4cccnc4Cl)sc23)cc1 [Compound 39]
11.7 | CS(=O)(=O)c1ccc(Nc2ncnc3cc(-c4cccnc4Cl)sc23)cc1 [Compound 37]
12.9 | CS(=O)(=O)c1ccc(Nc2ncnc3sc(-c4cccnc4Cl)cc23)cc1 [Compound 15]

Same assay, conditions: PI5P4Kγ+ pIC50, ADP-Glo; footnote a: inconsistent replicates, value shown is upper limit

IC50 [nM] | Compound
39.8 | Cn1cc(-c2cc3c(Nc4ccc(S(C)(=O)=O)cc4)ncnc3s2)cn1 [Compound 8]
20 | CSc1ccc(Nc2ncnc3sc(-c4ccncc4C)cc23)cc1 [Compound 26]
7.94 | CSc1ccc(Nc2ncnc3cc(-c4cccnc4Cl)sc23)cc1 [Compound 39]
12.6 | CS(=O)(=O)c1ccc(Nc2ncnc3cc(-c4cccnc4Cl)sc23)cc1 [Compound 37]
12.6 | CS(=O)(=O)c1ccc(Nc2ncnc3sc(-c4cccnc4Cl)cc23)cc1 [Compound 15]

Biological target: T3, PI5P4Kα (Homo sapiens, UniProt P48426)
T3 sequence (P48426 1-406): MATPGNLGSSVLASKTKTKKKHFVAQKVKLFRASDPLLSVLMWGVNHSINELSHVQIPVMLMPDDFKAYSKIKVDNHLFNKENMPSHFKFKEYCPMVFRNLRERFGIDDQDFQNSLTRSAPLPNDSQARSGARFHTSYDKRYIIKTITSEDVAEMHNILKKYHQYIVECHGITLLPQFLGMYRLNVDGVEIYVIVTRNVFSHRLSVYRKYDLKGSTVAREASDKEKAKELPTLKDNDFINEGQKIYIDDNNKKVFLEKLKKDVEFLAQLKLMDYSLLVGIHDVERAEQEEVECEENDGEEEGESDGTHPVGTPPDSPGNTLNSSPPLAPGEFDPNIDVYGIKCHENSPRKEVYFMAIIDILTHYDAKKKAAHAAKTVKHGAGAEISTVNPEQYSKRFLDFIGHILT
Experiment: biochemical
Details: ADP-Glo pIC50 PI5P4Kα, Table S1, two decimals; asterisk not explained

IC50 [nM] | Compound
135 | CSc1ccc(Nc2ncnc3sc(-c4ccncc4C)cc23)cc1 [Compound 26]
46.8 | CSc1ccc(Nc2ncnc3cc(-c4cccnc4Cl)sc23)cc1 [Compound 39]
355 | CS(=O)(=O)c1ccc(Nc2ncnc3cc(-c4cccnc4Cl)sc23)cc1 [Compound 37]
708 | CS(=O)(=O)c1ccc(Nc2ncnc3sc(-c4cccnc4Cl)cc23)cc1 [Compound 15]

Biological target: T4, PI5P4Kβ (Homo sapiens, UniProt P78356)
T4 sequence (P78356 1-416): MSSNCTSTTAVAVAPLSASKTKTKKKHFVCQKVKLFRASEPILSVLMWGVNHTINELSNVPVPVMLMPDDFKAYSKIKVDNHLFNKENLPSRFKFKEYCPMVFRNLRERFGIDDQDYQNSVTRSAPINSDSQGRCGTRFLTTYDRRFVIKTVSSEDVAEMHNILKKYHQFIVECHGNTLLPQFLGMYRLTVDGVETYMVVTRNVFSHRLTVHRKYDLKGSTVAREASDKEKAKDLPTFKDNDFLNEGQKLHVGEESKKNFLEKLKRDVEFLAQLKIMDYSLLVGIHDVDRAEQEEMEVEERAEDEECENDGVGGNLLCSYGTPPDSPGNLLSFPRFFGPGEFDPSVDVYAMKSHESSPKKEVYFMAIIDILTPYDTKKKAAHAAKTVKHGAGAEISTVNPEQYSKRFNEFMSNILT
Experiment: PI5P4Kβ ADP-Glo kinase assay
Details: not given

ADP-Glo pIC50 PI5P4Kβ | Compound
4.9 | Cn1cc(-c2cc3c(Nc4ccc(S(C)(=O)=O)cc4)ncnc3s2)cn1 [Compound 8]
4.9 | CS(=O)(=O)c1ccc(Nc2ncnc3sc(-c4cccnc4Cl)cc23)cc1 [Compound 15]

Tested on: MDCK-MDR1 cells
Experiment: MDR1-MDCK bi-directional permeability and efflux
Details: MDCK-MDR1 cells; A2B; 10 µM
Protocol: MDR1-MDCK Permeability (bi-directional): was performed by Cyprotex Discovery. Briefly, compounds were administered at 10 µM (1% DMSO final) to the apical or basolateral side of a confluent monolayer of MDR1-MDCK cells, then incubated at 37 °C for 60 minutes before appearance on the opposite side of the monolayer was determined LC-MS/MS. The efflux ratio (ER) is calculated from the ratio of B-A to A-B permeabilities.

P app (A2B) | Compound
6.23 10^−6 cm s^−1 | CS(=O)(=O)c1ccc(Nc2ncnc3sc(-c4ccccc4)cc23)cc1 [Compound 5]
2.88 10^−6 cm s^−1 | Cn1cc(-c2cc3c(Nc4ccc(S(C)(=O)=O)cc4)ncnc3s2)cn1 [Compound 8]
3.7 ^d 10^−6 cm s^−1 | CSc1ccc(Nc2ncnc3sc(-c4ccncc4C)cc23)cc1 [Compound 26]
12.9 10^−6 cm s^−1 | CSc1ccc(Nc2ncnc3cc(-c4cccnc4Cl)sc23)cc1 [Compound 39]
1.33 10^−6 cm s^−1 | CS(=O)(=O)c1ccc(Nc2ncnc3cc(-c4cccnc4Cl)sc23)cc1 [Compound 37]
4.73 10^−6 cm s^−1 | CS(=O)(=O)c1ccc(Nc2ncnc3sc(-c4cccnc4Cl)cc23)cc1 [Compound 15]

Biological target: T3, PI5P4Kα
Experiment: not given
Details: ADP-Glo; footnote a: inconsistent replicates, value shown is upper limit

PI5P4Kα pIC50 | Compound
5.2 | Cn1cc(-c2cc3c(Nc4ccc(S(C)(=O)=O)cc4)ncnc3s2)cn1 [Compound 8]
6.9 | CSc1ccc(Nc2ncnc3sc(-c4ccncc4C)cc23)cc1 [Compound 26]
7.3 | CSc1ccc(Nc2ncnc3cc(-c4cccnc4Cl)sc23)cc1 [Compound 39]
6.5 | CS(=O)(=O)c1ccc(Nc2ncnc3cc(-c4cccnc4Cl)sc23)cc1 [Compound 37]
6.2 | CS(=O)(=O)c1ccc(Nc2ncnc3sc(-c4cccnc4Cl)cc23)cc1 [Compound 15]
